Experiments:
site IIIQO = target: T1, site IIIQO (Rattus norvegicus, UniProt P00159+P20788); experiment: Mitochondrial ROS/H2O2 production (Amplex Red/HRP) after rotenone, antimycin A, myxothiazol; type: biochemical; conditions: AOL 5 to 80 μM
T1 construct: from tissue; host or cells: mitochondria isolated from rat heart
Method: Rates of ROS/H2O2 production from heart mitochondria were assessed through the oxidation of the colorless, non-fluorescent indicator Amplex Red in the presence of exogenous horseradish peroxidase (HRP, EC 1.11.1.7, Sigma). H2O2 reacts with Amplex Red in a 1:1 stoichiometry, yielding the fluorescent compound resorufin (excitation: 560 nm; emission: 585 nm) which is stable once formed. Fluorescence was measured continuously with a spectro-fluorometer equipped with temperature control and stirring (SAFAS Xenius, Monaco). Isolated mitochondria (0.1 mg/mL) were incubated in the same experimental buffer than previously, supplemented with 15 μM Amplex Red and 10 μg/mL HRP. Glutamate (5 mM)/malate (2.5 mM) together with succinate (5 mM) were used as complex I and complex II substrates, respectively. Experiments were conducted under non-phosphorylating conditions in the presence of 15 μM atractyloside, i.e., under state IV conditions where mitochondrial membrane is maximal. […]
Rates of ROS/H2O2 production from heart mitochondria were assessed through the oxidation of the colorless, non-fluorescent indicator Amplex Red in the presence of exogenous horseradish peroxidase (HRP, EC 1.11.1.7, Sigma). […] Fluorescence was measured continuously with a spectro-fluorometer equipped with temperature control and stirring (SAFAS Xenius, Monaco). […]

[1] = system: carcinoma cell lines A549 and H460; experiment: Cytotoxicity, sulforhodamine B (SRB) assay; type: cell-based, human; conditions: 48 hours
Method: Human non-small cell carcinoma cell line H460 and A549 were obtained from ATCC. Cells were cultured in growth medium consisting of DMEM (GIBCO), 10% FBS (GIBCO) and 100 units of penicillin and 100 μg/mL streptomycin (GIBCO). The cells were maintained in either 75-cm^2 T-flasks or 175-cm^2 T-flasks (BD Biosciences) in an incubator (model 3100 series, Forma Scientific, Marietta, Ohio) controlled at 37° C., 95% humidity, and 5% CO2. Cell culture medium was refreshed every other day. Every 2 to 3 days, H460 and A549 cultures were detached from the flasks using a 0.25% trypsin solution (Gibco) and subcultured. All cultures were maintained at 80-90% confluence at the time of subculture.
Cytotoxicity screening was carried out by sulforhodamine B colorimetric assay. A549 and H460 cells (2·10^3) were seeded in a 96-well plate, and after adherence, cells were incubated with 5 to 500 μM of AOL or AOX or control dimethyl sulfoxide (DMSO). Cytotoxicity was evaluated after 48 hours treatment sulforhodamine B (SRB) assay, according to Vichai (Vichai et al., 2006. Nat. Protoc. 1(3):1112-6).

T1 sequence (P00159 whole entry): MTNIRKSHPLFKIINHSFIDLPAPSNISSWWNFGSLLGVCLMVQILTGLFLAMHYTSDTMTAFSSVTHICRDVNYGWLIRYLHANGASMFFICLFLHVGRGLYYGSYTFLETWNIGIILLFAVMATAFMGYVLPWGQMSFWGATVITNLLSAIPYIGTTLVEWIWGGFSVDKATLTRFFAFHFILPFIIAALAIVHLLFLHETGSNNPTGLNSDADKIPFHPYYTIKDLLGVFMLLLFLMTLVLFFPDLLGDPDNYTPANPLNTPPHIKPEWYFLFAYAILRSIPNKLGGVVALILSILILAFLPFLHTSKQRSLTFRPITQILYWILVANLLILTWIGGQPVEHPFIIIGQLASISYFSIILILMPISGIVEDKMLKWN
T1 sequence (P20788 79-274 limits assumed): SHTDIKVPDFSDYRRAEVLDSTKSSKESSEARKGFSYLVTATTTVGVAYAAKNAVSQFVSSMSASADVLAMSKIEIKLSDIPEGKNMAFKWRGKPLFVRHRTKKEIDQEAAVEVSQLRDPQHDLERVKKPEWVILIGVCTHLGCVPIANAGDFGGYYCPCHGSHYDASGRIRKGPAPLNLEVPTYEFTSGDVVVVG
T1 sequence (P20788 1-78 partner limits assumed): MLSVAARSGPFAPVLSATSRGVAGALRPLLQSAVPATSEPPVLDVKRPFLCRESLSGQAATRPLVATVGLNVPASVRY
T1 sequence (Q68FY0 35-480 partner): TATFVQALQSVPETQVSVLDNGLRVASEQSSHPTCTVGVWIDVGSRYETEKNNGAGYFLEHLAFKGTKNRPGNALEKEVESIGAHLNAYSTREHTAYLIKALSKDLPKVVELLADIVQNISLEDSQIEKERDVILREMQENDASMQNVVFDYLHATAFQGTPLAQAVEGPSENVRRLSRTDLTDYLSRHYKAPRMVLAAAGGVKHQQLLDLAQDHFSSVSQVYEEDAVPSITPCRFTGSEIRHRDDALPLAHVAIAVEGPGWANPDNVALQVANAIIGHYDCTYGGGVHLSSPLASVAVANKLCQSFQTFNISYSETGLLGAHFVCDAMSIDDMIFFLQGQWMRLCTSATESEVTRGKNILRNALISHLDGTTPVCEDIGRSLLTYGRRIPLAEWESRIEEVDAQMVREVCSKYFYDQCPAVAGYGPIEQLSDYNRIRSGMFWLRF
T1 sequence (P32551 15-452 partner): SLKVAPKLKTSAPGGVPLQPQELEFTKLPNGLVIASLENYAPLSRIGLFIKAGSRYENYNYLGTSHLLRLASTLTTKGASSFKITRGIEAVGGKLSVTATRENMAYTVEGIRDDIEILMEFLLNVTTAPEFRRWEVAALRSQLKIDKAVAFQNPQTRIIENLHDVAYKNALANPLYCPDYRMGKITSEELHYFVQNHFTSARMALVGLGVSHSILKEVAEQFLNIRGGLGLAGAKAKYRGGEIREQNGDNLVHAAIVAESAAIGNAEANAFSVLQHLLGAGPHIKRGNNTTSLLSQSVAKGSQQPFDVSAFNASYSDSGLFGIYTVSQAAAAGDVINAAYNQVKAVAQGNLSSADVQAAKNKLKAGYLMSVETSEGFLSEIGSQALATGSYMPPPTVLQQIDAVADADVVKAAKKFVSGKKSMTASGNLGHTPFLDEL

Row | SMILES | effect on ROS/H2O2 production under the other conditions (site IIIQO) | concentrations without significant toxicity [1] | IC50 ([1]; Homo sapiens, 0 to 500 μM, read-out: IC50 for high dose toxicity)
1 | COc1ccc(-c2cc(=S)ss2)cc1 [AOL, 5-(4-methoxyphenyl)-3H-1,2-dithiole-3-thione] | no statistical differences were observed |  | 
2 | Oc1ccc(-c2cc(=S)ss2)cc1 [AOX, 5-(4-hydroxyphenyl)-3H-1,2-dithiole-3-thione] |  | lower than 100 μM | 134.8 ± 0.3 µM
